Measurements taken from US20240301409A1, “Chemically Modified Small Activating RNA” (RACTIGEN THERAPEUTICS, priority 2021, published 2024).

Tested on: T24 cells
Experiment: Cellular proliferation assay (CCK8) in T24 cells, alone and combined with Mitomycin C or valrubicin
Type: cell-based, human
Outline: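 Cells transfected with saRNA RAG1-40-31 (0.1–50 nM) for 24 h, then Mitomycin C or valrubicin (1–10000 nM) added in paired concentrations; single-agent saRNA at 10 nM for 72 h. Viability by CCK8 absorbance at 450 nm after 1 h at 37 °C, as % of blank transfection control.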

## RAG1-40-31: saRNA duplex: sense fCfCAACUCAUUCUCCAAG*U*C (SEQ ID NO 16); antisense U*A*fCfUfUGGAGAAfUGAGfUfUGG*fC*A (SEQ ID NO 12) (sense CCAACUCAUUCUCCAAGUC; antisense UACUUGGAGAAUGAGUUGGCA; 2'-F and phosphorothioate modifications; modified_base (1)..(2) (1,2)=2′-fluoro; modified_base (17)..(19) (17,18,19)=phosphorothioate (PS) backbone modification; modified_base (2)..(21) (2,3,19,20,21)=phosphorothioate (PS) backbone modification; modified_base (3)..(20) (3,4,5,12,16,17,20)=2′-fluoro)
RAG1-40-31 0.1 nM + MMC 1 nM
  Relative proliferation proportion of T24 cells: 93.6%
RAG1-40-31 0.1 nM + MMC 10 nM
  Relative proliferation proportion of T24 cells: 94.5%
RAG1-40-31 0.1 nM + MMC 100 nM
  Relative proliferation proportion of T24 cells: 63.3%
RAG1-40-31 0.1 nM + MMC 1000 nM
  Relative proliferation proportion of T24 cells: 17.6%
RAG1-40-31 0.1 nM + MMC 10000 nM
  Relative proliferation proportion of T24 cells: 5.6%
RAG1-40-31 0.1 nM + valrubicin 1 nm
  Relative proliferation proportion of T24 cells: 96.3%
RAG1-40-31 0.1 nM + valrubicin 10 nm
  Relative proliferation proportion of T24 cells: 97.8%
RAG1-40-31 0.1 nM + valrubicin 100 nm
  Relative proliferation proportion of T24 cells: 93.4%
RAG1-40-31 0.1 nM + valrubicin 1000 nm
  Relative proliferation proportion of T24 cells: 59.6%
RAG1-40-31 0.1 nM + valrubicin 10000 nm
  Relative proliferation proportion of T24 cells: 18.9%
RAG1-40-31 0.1 nM, Control (no MMC)
  Relative proliferation proportion of T24 cells: 97.9%
RAG1-40-31 0.1 nM, Control (no valrubicin)
  Relative proliferation proportion of T24 cells: 93.5%
RAG1-40-31 0.5 nM + MMC 1 nM
  Relative proliferation proportion of T24 cells: 90.1%
RAG1-40-31 0.5 nM + MMC 10 nM
  Relative proliferation proportion of T24 cells: 90.0%
RAG1-40-31 0.5 nM + MMC 100 nM
  Relative proliferation proportion of T24 cells: 59.8%
RAG1-40-31 0.5 nM + MMC 1000 nM
  Relative proliferation proportion of T24 cells: 16.8%
RAG1-40-31 0.5 nM + MMC 10000 nM
  Relative proliferation proportion of T24 cells: 5.5%
RAG1-40-31 0.5 nM + valrubicin 1 nm
  Relative proliferation proportion of T24 cells: 91.3%
RAG1-40-31 0.5 nM + valrubicin 10 nm
  Relative proliferation proportion of T24 cells: 94.3%
RAG1-40-31 0.5 nM + valrubicin 100 nm
  Relative proliferation proportion of T24 cells: 91.4%
RAG1-40-31 0.5 nM + valrubicin 1000 nm
  Relative proliferation proportion of T24 cells: 51.8%
RAG1-40-31 0.5 nM + valrubicin 10000 nm
  Relative proliferation proportion of T24 cells: 19.5%
RAG1-40-31 0.5 nM, Control (no MMC)
  Relative proliferation proportion of T24 cells: 91.7%
RAG1-40-31 0.5 nM, Control (no valrubicin)
  Relative proliferation proportion of T24 cells: 84.8%
RAG1-40-31 1 nM + MMC 1 nM
  Relative proliferation proportion of T24 cells: 81.9%
RAG1-40-31 1 nM + MMC 10 nM
  Relative proliferation proportion of T24 cells: 78.2%
RAG1-40-31 1 nM + MMC 100 nM
  Relative proliferation proportion of T24 cells: 55.6%
RAG1-40-31 1 nM + MMC 1000 nM
  Relative proliferation proportion of T24 cells: 14.7%
RAG1-40-31 1 nM + MMC 10000 nM
  Relative proliferation proportion of T24 cells: 5.4%
RAG1-40-31 1 nM + valrubicin 1 nm
  Relative proliferation proportion of T24 cells: 76.0%
RAG1-40-31 1 nM + valrubicin 10 nm
  Relative proliferation proportion of T24 cells: 71.3%
RAG1-40-31 1 nM + valrubicin 100 nm
  Relative proliferation proportion of T24 cells: 67.6%
RAG1-40-31 1 nM + valrubicin 1000 nm
  Relative proliferation proportion of T24 cells: 49.6%
RAG1-40-31 1 nM + valrubicin 10000 nm
  Relative proliferation proportion of T24 cells: 16.6%
RAG1-40-31 1 nM, Control (no MMC)
  Relative proliferation proportion of T24 cells: 85.9%
RAG1-40-31 1 nM, Control (no valrubicin)
  Relative proliferation proportion of T24 cells: 79.7%
RAG1-40-31 5 nM + MMC 1 nM
  Relative proliferation proportion of T24 cells: 37.4%
RAG1-40-31 5 nM + MMC 10 nM
  Relative proliferation proportion of T24 cells: 36.3%
RAG1-40-31 5 nM + MMC 100 nM
  Relative proliferation proportion of T24 cells: 26.0%
RAG1-40-31 5 nM + MMC 1000 nM
  Relative proliferation proportion of T24 cells: 7.7%
RAG1-40-31 5 nM + MMC 10000 nM
  Relative proliferation proportion of T24 cells: 3.1%
RAG1-40-31 5 nM + valrubicin 1 nm
  Relative proliferation proportion of T24 cells: 37.2%
RAG1-40-31 5 nM + valrubicin 10 nm
  Relative proliferation proportion of T24 cells: 33.3%
RAG1-40-31 5 nM + valrubicin 100 nm
  Relative proliferation proportion of T24 cells: 42.1%
RAG1-40-31 5 nM + valrubicin 1000 nm
  Relative proliferation proportion of T24 cells: 25.7%
RAG1-40-31 5 nM + valrubicin 10000 nm
  Relative proliferation proportion of T24 cells: 8.0%
RAG1-40-31 5 nM, Control (no MMC)
  Relative proliferation proportion of T24 cells: 42.1%
RAG1-40-31 5 nM, Control (no valrubicin)
  Relative proliferation proportion of T24 cells: 38.5%
RAG1-40-31 10 nM + MMC 1 nM
  Relative proliferation proportion of T24 cells: 19.8%
RAG1-40-31 10 nM + MMC 10 nM
  Relative proliferation proportion of T24 cells: 27.0%
RAG1-40-31 10 nM + MMC 100 nM
  Relative proliferation proportion of T24 cells: 16.7%
RAG1-40-31 10 nM + MMC 1000 nM
  Relative proliferation proportion of T24 cells: 5.3%
RAG1-40-31 10 nM + MMC 10000 nM
  Relative proliferation proportion of T24 cells: 2.5%
RAG1-40-31 10 nM + valrubicin 1 nm
  Relative proliferation proportion of T24 cells: 27.2%
RAG1-40-31 10 nM + valrubicin 10 nm
  Relative proliferation proportion of T24 cells: 23.3%
RAG1-40-31 10 nM + valrubicin 100 nm
  Relative proliferation proportion of T24 cells: 26.9%
RAG1-40-31 10 nM + valrubicin 1000 nm
  Relative proliferation proportion of T24 cells: 21.7%
RAG1-40-31 10 nM + valrubicin 10000 nm
  Relative proliferation proportion of T24 cells: 5.1%
RAG1-40-31 10 nM, Control (no MMC)
  Relative proliferation proportion of T24 cells: 22.0%
RAG1-40-31 10 nM, Control (no valrubicin)
  Relative proliferation proportion of T24 cells: 23.9%
RAG1-40-31 25 nM + MMC 1 nM
  Relative proliferation proportion of T24 cells: 15.4%
RAG1-40-31 25 nM + MMC 10 nM
  Relative proliferation proportion of T24 cells: 20.9%
RAG1-40-31 25 nM + MMC 100 nM
  Relative proliferation proportion of T24 cells: 12.4%
RAG1-40-31 25 nM + MMC 1000 nM
  Relative proliferation proportion of T24 cells: 4.1%
RAG1-40-31 25 nM + MMC 10000 nM
  Relative proliferation proportion of T24 cells: 1.9%
RAG1-40-31 25 nM + valrubicin 1 nm
  Relative proliferation proportion of T24 cells: 16.5%
RAG1-40-31 25 nM + valrubicin 10 nm
  Relative proliferation proportion of T24 cells: 20.4%
RAG1-40-31 25 nM + valrubicin 100 nm
  Relative proliferation proportion of T24 cells: 19.5%
RAG1-40-31 25 nM + valrubicin 1000 nm
  Relative proliferation proportion of T24 cells: 13.2%
RAG1-40-31 25 nM + valrubicin 10000 nm
  Relative proliferation proportion of T24 cells: 3.4%
RAG1-40-31 25 nM, Control (no MMC)
  Relative proliferation proportion of T24 cells: 13.6%
RAG1-40-31 25 nM, Control (no valrubicin)
  Relative proliferation proportion of T24 cells: 15.1%
RAG1-40-31 50 nM + MMC 1 nM
  Relative proliferation proportion of T24 cells: 20.1%
RAG1-40-31 50 nM + MMC 10 nM
  Relative proliferation proportion of T24 cells: 19.8%
RAG1-40-31 50 nM + MMC 100 nM
  Relative proliferation proportion of T24 cells: 10.8%
RAG1-40-31 50 nM + MMC 1000 nM
  Relative proliferation proportion of T24 cells: 4.2%
RAG1-40-31 50 nM + MMC 10000 nM
  Relative proliferation proportion of T24 cells: 2.1%
RAG1-40-31 50 nM + valrubicin 1 nm
  Relative proliferation proportion of T24 cells: 18.4%
RAG1-40-31 50 nM + valrubicin 10 nm
  Relative proliferation proportion of T24 cells: 18.8%
RAG1-40-31 50 nM + valrubicin 100 nm
  Relative proliferation proportion of T24 cells: 18.7%
